# According to patent US8715709B2, “Sustained release intraocular implants and methods for treating ocular neuropathies” (Allergan, Inc., priority 2004, dated 2014):
# Structures can show the parent of a compound that is named as a salt. Where two headings read alike, the source gives them in different places.
# Assays:
# [1] = aqueous / dissolution medium (0.9% saline), cited from earlier work
# in vivo = conditions: rabbit
# Description: Sampling was done from the anterior chamber for the first five animals after 1 hr, 3 hr, 6 hr, 12 hr, and 24 hr, and from both the anterior chamber and posterior segment of the remaining five animals after 1 hr, 3 hr, 6 hr, 24 hr, and 48 hr. One animal was used for each time point.
clearance in the posterior segment compared with anterior chamber (in words) (in vivo),half-life (in vivo) [h],Structure (SMILES),solubility in aqueous medium (in words) ([1]; listed as timolol maleate),levels in the anterior chamber from posterior segment bolus injection (in words) (in vivo),solubility in aqueous medium (in words) [1]
relatively slower clearance rate,~1.43,"CC(C)(C)NC[C@H](O)COc1nsnc1N1CCOCC1 [Timolol Maleate, (−)-1-(tert-butylamino)-3-[(4-morpholino-1,2,5-thiadiazo-3-yl)oxy]-2-propanol maleate, (1:1) salt]",high water solubility,the levels were small and considered insignificant,–
–,–,CC(C)(C)NC[C@H](O)COc1nsnc1N1CCOCC1 [Timolol freebase],–,–,less soluble
